Assay results: patent US9029384B2, “Phosphatidylinositol 3-kinase inhibitors” (Gilead Calistoga LLC, priority 2012, dated 2015)
pEC50, pIC50: −log10 of the molar value. Read-outs that look alike come from different tables or passages of the source.

Legend:
PI3Kδ = target: T1, PI3Kδ (Homo sapiens, UniProt O00329); assay: Enzymatic activity of PI3K isoforms, TR-FRET assay (PIP3 formation); assay type: biochemical
T1 construct: made in house
Procedure, shortened: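 Recombinant heterodimeric class I PI3K; PIP3 product measured by TR-FRET competition with labelled PIP3 for Eu-GRP-1 PH domain. Reaction 30 min at 25 °C, stopped with 10 mM EDTA.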

[1] = Hepatocyte stability, 0.01% final DMSO, 1 μM substrate (t1/2^b); assay type: in vitro ADME; conditions: human, hepatocytes, TA with 0.01% final DMSO
Experimental: Alternatively, assay reagents and/or conditions can be modified in determining the inhibitory activities to PI3K isomers. In additional studies, similar assay using TA and 0.01% final DMSO concentration were incubated with 1 million hepatocytes/mL at 1 μM substrate in duplicate. The incubation was carried out at 37° C. with 5% CO2 and saturating humidity.

basophils = assay: Basophil activation in human whole blood (Flow2 CAST kit, CD63 positive cells); assay type: cell-based; conditions: Homo sapiens
Procedure, shortened: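 Human whole blood (K2-EDTA) preincubated 60 minutes at 37° C with compound serial dilutions or DMSO (0.3% final), then stimulated with anti-FcεRI mAb or fMLP and stained for CD63/CCR3. Percent CD63+ among ≥200 CCR3-high basophils by flow cytometry, normalized to stimulated vehicle as 100%. EC50 from four-parameter fits, geometric means in nM, concentrations corrected for reagent dilution.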

[2] = Hepatocyte stability, 1% final DMSO, 2 μM substrate (t1/2^a); assay type: in vitro ADME; conditions: human, cryopreserved hepatocytes, TA with 1% final DMSO
Experimental: This assay was used to evaluate the metabolic stability of test articles (TA) following incubation in cryopreserved hepatocytes by monitoring parent drug disappearance via […]. The TA with 1% final DMSO concentration was incubated with 1 million hepatocytes/ml at 2 μM substrate in duplicate. The incubation was carried out at 37° C. with 5% CO2 and saturating humidity.

[3] = PI3Kδ, TR-FRET, 2×Km ATP, 10 μM PIP2, read-out: IC50
[4] = 1 μM substrate, samples at 0, 1, 3, 6 hours, read-out: human hepatocyte t½^b
[5] = human hepatocytes, read-out: t1/2^b
[6] = basophils activated with anti-FcεRI mAb or fMLP, geometric mean
[7] = 2 μM substrate, samples at 0, 1, 2, 4 hours, read-out: human hepatocyte t½^a
[8] = human hepatocytes, read-out: t1/2^a

T1 sequence (O00329 whole entry, canonical isoform): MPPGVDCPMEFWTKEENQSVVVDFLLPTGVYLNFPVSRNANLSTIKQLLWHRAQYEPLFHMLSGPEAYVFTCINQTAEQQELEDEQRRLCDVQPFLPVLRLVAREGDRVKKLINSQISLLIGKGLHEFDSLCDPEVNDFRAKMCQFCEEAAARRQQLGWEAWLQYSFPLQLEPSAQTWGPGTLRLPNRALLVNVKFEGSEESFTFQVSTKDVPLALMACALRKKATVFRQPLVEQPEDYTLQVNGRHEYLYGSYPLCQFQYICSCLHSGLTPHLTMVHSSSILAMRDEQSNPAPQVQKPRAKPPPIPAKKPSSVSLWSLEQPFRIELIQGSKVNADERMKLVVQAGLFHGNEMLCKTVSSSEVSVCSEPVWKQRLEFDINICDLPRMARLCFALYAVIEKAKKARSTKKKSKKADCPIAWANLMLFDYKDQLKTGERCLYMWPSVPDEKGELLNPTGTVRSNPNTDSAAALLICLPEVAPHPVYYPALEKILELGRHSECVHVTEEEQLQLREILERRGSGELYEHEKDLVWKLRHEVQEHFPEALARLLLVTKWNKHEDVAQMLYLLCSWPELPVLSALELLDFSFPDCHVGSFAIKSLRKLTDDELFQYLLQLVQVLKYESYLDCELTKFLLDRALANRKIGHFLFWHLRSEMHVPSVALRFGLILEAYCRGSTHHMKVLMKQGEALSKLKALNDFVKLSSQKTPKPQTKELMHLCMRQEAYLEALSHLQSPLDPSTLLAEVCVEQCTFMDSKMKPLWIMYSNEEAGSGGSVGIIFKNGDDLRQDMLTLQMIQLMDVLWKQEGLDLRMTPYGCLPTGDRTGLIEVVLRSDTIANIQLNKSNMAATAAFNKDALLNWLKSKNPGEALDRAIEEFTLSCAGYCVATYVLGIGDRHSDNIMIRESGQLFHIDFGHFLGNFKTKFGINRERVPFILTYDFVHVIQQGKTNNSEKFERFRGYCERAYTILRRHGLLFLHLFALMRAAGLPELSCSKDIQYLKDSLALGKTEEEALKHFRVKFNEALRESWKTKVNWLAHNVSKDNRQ
T1 sequence (P27986 whole entry partner, canonical isoform): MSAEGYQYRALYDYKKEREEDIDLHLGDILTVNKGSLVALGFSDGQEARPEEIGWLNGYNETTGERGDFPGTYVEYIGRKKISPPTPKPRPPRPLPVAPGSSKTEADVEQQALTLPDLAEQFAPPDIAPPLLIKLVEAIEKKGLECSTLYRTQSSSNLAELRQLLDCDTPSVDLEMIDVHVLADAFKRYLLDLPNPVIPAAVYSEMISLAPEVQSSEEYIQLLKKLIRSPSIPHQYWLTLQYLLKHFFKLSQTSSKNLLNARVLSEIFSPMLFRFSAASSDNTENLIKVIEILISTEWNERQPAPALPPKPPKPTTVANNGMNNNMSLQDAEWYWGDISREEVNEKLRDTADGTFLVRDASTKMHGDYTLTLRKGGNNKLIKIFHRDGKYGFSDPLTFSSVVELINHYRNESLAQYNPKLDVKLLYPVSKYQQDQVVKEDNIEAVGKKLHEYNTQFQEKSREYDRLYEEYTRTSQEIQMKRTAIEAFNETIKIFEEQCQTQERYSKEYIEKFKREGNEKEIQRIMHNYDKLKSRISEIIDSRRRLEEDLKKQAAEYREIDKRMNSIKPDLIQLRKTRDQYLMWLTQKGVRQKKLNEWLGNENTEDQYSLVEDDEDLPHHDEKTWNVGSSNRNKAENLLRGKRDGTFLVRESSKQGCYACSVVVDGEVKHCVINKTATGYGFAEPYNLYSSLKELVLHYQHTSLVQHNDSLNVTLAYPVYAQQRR

Structure (SMILES)	pIC50 (PI3Kδ; [3])	half-life at 1 μM [1, 4] [h]	half-life at 1 μM [1, 5] [h]	pEC50 (basophils; basophil activation)	pEC50 (basophils; [6])	half-life at 2 μM [2, 7] [h]	half-life at 2 μM [2, 8] [h]	pIC50 (PI3Kδ)
CC(Nc1nc(N)nc(N)c1C#N)c1nc2cccc(Cl)c2c(=O)n1-c1ccccc1 (single isomer, unassigned) [Compound 49a]	> 9.00	3 to 6	> 4	> 9.30	> 9.00	> 10	> 10	–
CCC(Nc1nc(N)nc(N)c1C#N)c1nc2c(F)cccc2c(=O)n1-c1cc(F)cc(F)c1 (single isomer, unassigned) [Compound 17a]	8.00 to 9.00	6 to 10	–	–	> 9.00	> 10	–	–
C[C@H](Nc1ncnc(N)c1C#N)c1nc2cccc(Cl)c2c(=O)n1-c1cc(F)cc(F)c1 [Z, reference compound]	–	–	< 2	< 8.00	7.30 to 8.00	1 to 3	< 3	8.00 to 9.00
CC(Nc1nc(N)nc(N)c1C#N)c1nc2cccc(F)c2c(=O)n1-c1cc(F)cc(C(F)F)c1 (single isomer, unassigned) [Compound 54a]	7.30 to 8.00	3 to 6	–	–	8.00 to 9.00	> 10	–	–
CC(Nc1nc(N)nc(N)c1C#N)c1nc2c(C#N)cccc2c(=O)n1-c1cc(F)cc(F)c1 (single isomer, unassigned) [Compound 101a]	8.00 to 9.00	3 to 6	–	–	8.00 to 9.00	> 10	–	–
CCC(Nc1nc(N)nc(N)c1C#N)c1nc2c(F)ccc(F)c2c(=O)n1-c1cc(F)cc(F)c1 (single isomer, unassigned) [Compound 27a]	7.30 to 8.00	1 to 3	–	–	8.00 to 9.00	> 10	–	–
CC(Nc1nc(N)nc(N)c1C#N)c1nc2c(F)cccc2c(=O)n1-c1cc(F)cc(F)c1 (single isomer, unassigned) [Compound 16a]	8.00 to 9.00	3 to 6	–	–	8.00 to 9.00	> 10	–	–
CC(Nc1nc(N)nc(N)c1C(N)=O)c1nc2cccc(Cl)c2c(=O)n1-c1cc(F)cc(F)c1 (single isomer, unassigned) [Compound 90a]	8.00 to 9.00	3 to 6	–	–	8.00 to 9.00	> 10	–	–
CC(Nc1nc(N)nc(N)c1C#N)c1nc2cccc(F)c2c(=O)n1-c1cc(F)cc(F)c1 (single isomer, unassigned) [Compound 10a]	8.00 to 9.00	3 to 6	–	–	8.00 to 9.00	> 10	–	–
CC(Nc1nc(N)nc(N)c1C#N)c1nc2c(Cl)cccc2c(=O)n1-c1cc(F)cc(F)c1 (single isomer, unassigned) [Compound 71a]	8.00 to 9.00	1 to 3	–	–	8.00 to 9.00	> 10	–	–
CC(Nc1nc(N)nc(N)c1C#N)c1nc2cccc(F)c2c(=O)n1-c1cc(F)cc(Cl)c1 (single isomer, unassigned) [Compound 44a]	7.30 to 8.00	1 to 3	–	–	7.30 to 8.00	> 10	–	–
Cc1ccc(F)c2nc(C(C)Nc3nc(N)nc(N)c3C#N)n(-c3cc(F)cc(C#N)c3)c(=O)c12 (single isomer, unassigned) [Compound 31a]	8.00 to 9.00	–	–	–	8.00 to 9.00	6 to 10	–	–
CC(Nc1nc(N)nc(N)c1Cl)c1nc2cccc(Cl)c2c(=O)n1-c1ccccc1 (single isomer, unassigned) [Compound 104a]	–	–	–	–	8.00 to 9.00	3 to 6	–	> 9.00
C[C@H](Nc1ncnc2[nH]cnc12)c1nc2cccc(Cl)c2c(=O)n1-c1ccccc1 [X, reference compound]	–	–	< 2	< 8.30	8.00 to 9.00	1 to 3	< 1	–
Cc1ccc(F)c2c(=O)n(-c3cc(F)cc(F)c3)c(C(C)Nc3nc(N)nc(N)c3C#N)nc12 (single isomer, unassigned) [Compound 35a]	8.00 to 9.00	–	–	–	8.00 to 9.00	6 to 10	–	–
CCC(Nc1nc(N)nc(N)c1C#N)c1nc2cccc(C)c2c(=O)n1-c1cc(F)cc(F)c1 (single isomer, unassigned) [Compound 19a]	> 9.00	–	–	–	8.00 to 9.00	3 to 6	–	–
Cc1cccc2nc(C(C)Nc3nc(N)nc(N)c3C#N)n(-c3cc(F)cc(C#N)c3)c(=O)c12 (single isomer, unassigned) [Compound 24a]	8.00 to 9.00	–	–	–	8.00 to 9.00	6 to 10	–	–
CCC(Nc1nc(N)nc(N)c1C#N)c1nc2c(Cl)ccc(F)c2c(=O)n1-c1cc(F)cc(F)c1 (single isomer, unassigned) [Compound 102a]	7.30 to 8.00	–	–	–	8.00 to 9.00	6 to 10	–	–
CC(Nc1nc(N)nc(N)c1C#N)c1nc2cccc(F)c2c(=O)n1-c1cccc(C(F)(F)F)c1 (single isomer, unassigned) [Compound 40a]	8.00 to 9.00	–	–	–	8.00 to 9.00	6 to 10	–	–
CC(Nc1nc(N)nc(N)c1C#N)c1nc2cccc(Cl)c2c(=O)n1-c1cc(F)cc(C(F)F)c1 (single isomer, unassigned) [Compound 55a]	> 9.00	–	–	–	8.00 to 9.00	6 to 10	–	–
CC(Nc1nc(N)nc(N)c1C#N)c1nc2cccc(Cl)c2c(=O)n1-c1cc(F)cc(C#N)c1 (single isomer, unassigned) [Compound 20a]	8.00 to 9.00	–	–	–	8.00 to 9.00	6 to 10	–	–
CC(Nc1nc(N)nc(N)c1C#N)c1nc2c(Cl)ccc(Cl)c2c(=O)n1-c1cc(F)cc(F)c1 (single isomer, unassigned) [Compound 74a]	8.00 to 9.00	–	–	–	> 9.00	3 to 6	–	–
CCC(Nc1nc(N)nc(N)c1C#N)c1nc2cccc(Cl)c2c(=O)n1-c1cc(F)cc(C(F)F)c1 (single isomer, unassigned) [Compound 66a]	8.00 to 9.00	–	–	–	8.00 to 9.00	3 to 6	–	–
Cc1cccc2nc(C(C)Nc3nc(N)nc(N)c3C#N)n(-c3cc(F)cc(F)c3)c(=O)c12 (single isomer, unassigned) [Compound 18a]	> 9.00	–	–	–	> 9.00	3 to 6	–	–
CC(Nc1nc(N)nc(N)c1C#N)c1nc2cccc(Cl)c2c(=O)n1-c1cc(Cl)cc(Cl)c1 (single isomer, unassigned) [Compound 41a]	8.00 to 9.00	–	–	–	7.30 to 8.00	3 to 6	–	–
CCC(Nc1nc(N)nc(N)c1C#N)c1nc2cccc(C(F)F)c2c(=O)n1-c1cc(F)cc(F)c1 (single isomer, unassigned) [Compound 53a]	8.00 to 9.00	–	–	–	7.30 to 8.00	> 10	–	–
CC(Nc1nc(N)nc(N)c1C#N)c1nc2c(F)ccc(Cl)c2c(=O)n1-c1cc(F)cc(C#N)c1 (single isomer, unassigned) [Compound 48a]	7.30 to 8.00	–	–	–	< 7.30	> 10	–	–
CC(Nc1nc(N)nc(N)c1C#N)c1nc2cccc(Cl)c2c(=O)n1-c1cc(F)cc(Cl)c1 (single isomer, unassigned) [Compound 43a]	8.00 to 9.00	–	–	–	8.00 to 9.00	3 to 6	–	–
CCC(Nc1nc(N)nc(N)c1C#N)c1nc2c(Cl)cccc2c(=O)n1-c1cc(F)cc(F)c1 (single isomer, unassigned) [Compound 72a]	7.30 to 8.00	–	–	–	< 7.30	6 to 10	–	–
